Experimental data from patent publication US9655967B2, “Inhibition of focal adhesion kinase for control of scar tissue formation” (The Board of Trustees of the Leland Stanford Junior …, priority 2011, dated 2017).

Experiments:
human fibroblasts [1] = experiment: Scratch migration assay (fibroblast motility); type: cell-based; details: FIG. 3c
Protocol: (§1) Fibroblast harvest. We isolated primary dermal mouse fibroblasts after overnight incubation in trypsin (Gibco/Invitrogen, Carlsbad, Calif.) followed by 1 mg mL^−1 Liberase TL (Roche, Indianapolis, Ind.). We obtained human fibroblasts from fresh tissue specimens following IRB-approved protocols at Oregon Health and Sciences University. We incubated specimens overnight in 5 mg mL^−1 dispase (Roche) followed by 0.5 mg mL^−1 collagenase type I (Roche) and 0.2 mg mL^−1 trypsin. We used human cells from passages four to eight.
In vitro wound healing. We assessed fibroblast motility using a scratch migration assay, Aarabi, et al. FASEB J 21, 3250-3261 (2007).

human fibroblasts [2] = experiment: Fibroblast-populated 3D-collagen lattices (contraction, α-SMA expression); type: cell-based; details: FIG. 3d-e
Protocol: as §1
Fibroblast-populated collagen lattices. We performed fibroblast contraction studies as previously published, Ehrlich, Methods Mol Med 78, 277-291 (2003).
Microscopy and immunohistochemistry. We incubated paraformaldehyde-fixed cells with primary antibody (pFAK-Y397 or FAK 1:200, BD Biosciences, San Jose, Calif.) followed by AlexaFluor488-conjugated secondary antibody (Molecular Probes/Invitrogen). We performed cytoskeletal staining with phalloidin-AF488 or Cy3-conjugated antibody against α-SMA (Sigma-Aldrich). We performed H&E, picrosirius red and trichrome staining (Sigma-Aldrich) on paraffin-embedded sections. […] We processed images for publication using Adobe Photoshop CS3 (Adobe Systems Incorporated, San Jose, Calif.) and two blinded investigators performed image quantification using ImageJ (NIH, Bethesda, Md.).

human fibroblasts [3] = experiment: Focal adhesion formation and spreading in human fibroblasts; type: cell-based; details: PF573228 treatment
Text: To substantiate the importance of these findings in human tissues, we examined FAK pathways in vitro in human fibroblasts. Following the application of strain, FAK was activated within five minutes and sustained during the static strain period (FIG. 3a-b). ERK was phosphorylated after ten minutes and its activation was critically dependent on FAK, thus recapitulating the FAK-ERK mechanotransduction axis observed in vivo. Small molecule inhibition of FAK (PF573228) was used to investigate mechanically-regulated fibroblast function during wound repair. […] Additionally, cell motility (FIG. 3c) and contraction/α-SMA expression (FIG. 3d-e) were all decreased with FAK inhibition.
as §1, with “We used human cells from passages four to eight.” left out
Microscopy and immunohistochemistry. […] We processed images for publication using Adobe Photoshop CS3 (Adobe Systems Incorporated, San Jose, Calif.) and two blinded investigators performed image quantification using ImageJ (NIH, Bethesda, Md.).

[4] = test system: cutaneous wounds in the HTS model; experiment: Murine HTS model with daily intradermal injections; type: in vivo
Protocol: Murine HTS model. We used a murine HTS model as previously published by our group, Aarabi, et al., supra.
Microscopy and immunohistochemistry. We incubated paraformaldehyde-fixed cells with primary antibody (pFAK-Y397 or FAK 1:200, BD Biosciences, San Jose, Calif.) followed by AlexaFluor488-conjugated secondary antibody (Molecular Probes/Invitrogen). We performed cytoskeletal staining with phalloidin-AF488 or Cy3-conjugated antibody against α-SMA (Sigma-Aldrich). We performed H&E, picrosirius red and trichrome staining (Sigma-Aldrich) on paraffin-embedded sections. We used primary antibodies against FAK, MCP-1, F4/80, Ki67, and α-SMA. Immunostaining was developed with VIP, NovaRed or diaminobenzidine (Vector Laboratories, Burlingame, Calif.), or secondary fluorescent antibodies AF488 or AF594. We performed apoptotic staining using the In Situ Cell Death Detection Kit (Roche). We purchased all antibodies from Abcam Inc. (Cambridge, Mass.) unless otherwise noted. We processed images for publication using Adobe Photoshop CS3 (Adobe Systems Incorporated, San Jose, Calif.) and two blinded investigators performed image quantification using ImageJ (NIH, Bethesda, Md.).
Gene expression. We performed qPCR as previously published. We used Taqman Gene Expression Assays (Applied Biosystems, Foster City, Calif.) for in vitro qPCR.
Immunoblotting. We performed immunoblotting as previously described. We used the following antibodies: FAK (BD Biosciences), p-FAK Y397, p-FAK S732, p-ERK T202/Y204 and ERK, p-Akt S473 and Akt (Cell Signaling Technology, Inc., Danvers, Mass.), p-p38 Y182 and p38, p-JNK T183/Y185 and JNK, MCP-1 and β-actin. We obtained all antibodies from Abcam Inc. unless otherwise noted.
Intradermal injections. We administered intradermal injections (300 μL) of DMSO, 15 μM PF573228, or 150 μM PF573228 to unwounded murine skin or unloaded incisions. For HTS model experiments, we injected 15 μM PF573228 or recombinant mouse Mcp-1 (1 μg mL^−1, R&D Systems Inc.) daily between days 4 and 14 post-injury.

Compound	cell motility (human fibroblasts [1])	contraction/α-SMA expression (human fibroblasts [2])	formation of focal adhesions (human fibroblasts [3])	spreading in human fibroblasts (human fibroblasts [3])	scar formation in vivo ([4]; 15 μM PF573228 intradermal daily, days 4 to 14 post-injury, FIG. 4a)	MCP-1-associated pathways ([4]; HTS model scars)	mechanical activation of ERK ([4]; HTS model scars)	scar matrix density ([4]; post-injury day ten scars)	attenuation of epithelial proliferation ([4]; post-injury day ten scars, p<0.001) [%]	attenuation of epithelial thickness ([4]; post-injury day ten scars, p=0.004) [%]	attenuation of dermal proliferation ([4]; post-injury day ten scars, p=0.01) [%]	fibrotic phenotype in FAK-deficient wounds ([4]; FAK KO mice, intradermal Mcp-1 1 μg mL^−1 daily, FIG. 2c-f)
CS(=O)(=O)c1cccc(CNc2nc(Nc3ccc4c(c3)CCC(=O)N4)ncc2C(F)(F)F)c1 [PF573228]	decreased	decreased	effectively inhibited	impaired	significantly reduced	blocked	significantly decreased	attenuated	57	35	28	–
Mcp-1: recombinant mouse Mcp-1 (monocyte chemoattractant protein-1/CCL2), R&D Systems Inc.	–	–	–	–	–	–	–	–	–	–	–	restored the fibrotic phenotype
